In the assay the test system is Swiss mice, Sarcoma 180 sc, mean tumor weight T/C. Put plainly: NCI In Vivo Anticancer Drug Screen. Data for tumor model Sarcoma 180 (subcutaneous) in Swiss mice. The following applies: endpoint: mean tumor weight, higher = larger tumour. In a few lines: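 Mice bearing transplanted tumors were treated with compound, and survival or tumor size was measured. Values are expressed as the treated-group measurement (T) divided by the vehicle-treated control measurement (C).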

[1] abbreviates: dose: 8.0 mg/kg/injection, schedule: Q01DX007 (ip), vehicle: carboxymethylcellulose (CMC).
Setting [2] is: dose: 80.0 mg/kg/injection, schedule: Q01DX007 (ip), vehicle: carboxymethylcellulose (CMC).

For orientation: T/C means the result in the treated group divided by that in the control group, in per cent.

“And” between values parts separate entries of the source, which are not always exact repeats. Identical values can stand only once. Square brackets hold non-standard residues; d marks the D form. Peptide text beside a SMILES is read from it. ξ: configuration not given here. Ac5c = NC1(C(=O)O)CCCC1; ξS = NC(CO)C(=O)O

Consider `c1ccc2[nH]cnc2c1`, for which the T/C reads like this: (dose: 31.25 mg/kg/injection, schedule: Q#A X014 (ip), vehicle: carboxymethylcellulose (CMC)) 52 % of control; (dose: 37.12 mg/kg/injection, schedule: Q01DX007 (ip), vehicle: carboxymethylcellulose (CMC)) 84 % of control; (dose: 46.25 mg/kg/injection, schedule: Q01DX007 (ip), vehicle: carboxymethylcellulose (CMC)) 103 % of control; (dose: 62.5 mg/kg/injection, schedule: Q#A X014 (ip), vehicle: carboxymethylcellulose (CMC)) 95 % of control; (dose: 74.25 mg/kg/injection, schedule: Q01DX007 (ip), vehicle: carboxymethylcellulose (CMC)) 76 % of control; (dose: 92.5 mg/kg/injection, schedule: Q01DX007 (ip), vehicle: carboxymethylcellulose (CMC)) 94 % of control. In addition, the T/C was 84 % of control (dose: 125.0 mg/kg/injection, schedule: Q#A X014 (ip), vehicle: carboxymethylcellulose (CMC)); 76 % of control (dose: 148.5 mg/kg/injection, schedule: Q01DX007 (ip), vehicle: carboxymethylcellulose (CMC)); 89 % of control (dose: 185.0 mg/kg/injection, schedule: Q01DX007 (ip), vehicle: carboxymethylcellulose (CMC)); 51 % of control (dose: 250.0 mg/kg/injection, schedule: Q#A X014 (ip), vehicle: carboxymethylcellulose (CMC)); 62 % of control (dose: 297.0 mg/kg/injection, schedule: Q01DX007 (ip), vehicle: carboxymethylcellulose (CMC)).

Regarding `O=C(Nc1ccc(C2=NCCCN2)cc1)c1ccc(NC(=O)c2ccc(C3=NCCCN3)cc2)cc1`, the T/C runs as follows: under setting [1], 78 % of control; (dose: 16.0 mg/kg/injection, schedule: Q01DX007 (ip), vehicle: carboxymethylcellulose (CMC)) 73 % of control.

Take `Clc1ccccc1/C=C/C=C1c2ccccc2-c2ccccc21`: the T/C (dose: 222.0 mg/kg/injection, schedule: Q01DX007 (ip), vehicle: other) is 72 % of control; the T/C (dose: 222.0 mg/kg/injection, schedule: Q01DX007 (ip), vehicle: saline) was 83 % of control; the T/C (dose: 333.0 mg/kg/injection, schedule: Q01DX007 (ip), vehicle: other) is 78 % of control; the T/C (dose: 333.0 mg/kg/injection, schedule: Q01DX007 (ip), vehicle: saline) was 95 % of control; the T/C (dose: 492.0 mg/kg/injection, schedule: Q01DX007 (ip), vehicle: saline) was 56 % of control; the T/C (dose: 500.0 mg/kg/injection, schedule: Q01DX007 (ip), vehicle: other) is 50 % of control. Further, the T/C reads like this: (dose: 500.0 mg/kg/injection, schedule: Q01DX007 (ip), vehicle: saline) 79 % of control; (dose: 750.0 mg/kg/injection, schedule: Q01DX007 (ip), vehicle: other) 49 % of control; (dose: 1119.0 mg/kg/injection, schedule: Q01DX007 (ip), vehicle: saline) 58 % of control; (dose: 1679.0 mg/kg/injection, schedule: Q01DX007 (ip), vehicle: saline) 54 % of control.

With `CO[C@@H]1[C@@H](OC2OC(C)C(OC3CC(C)(O)C(OC(=O)CC(C)C)C(C)O3)C(N(C)C)C2O)[C@@H](CC=O)C[C@@H](C)C(=O)/C=C/C2O[C@H]2C[C@@H](C)OC(=O)C[C@H]1OC(C)=O` (stereo partly specified), the T/C runs as follows: (dose: 25.0 mg/kg/injection, schedule: Q#A X014 (ip), vehicle: methylcellulose (MC)) 86 % of control; (dose: 50.0 mg/kg/injection, schedule: Q#A X014 (ip), vehicle: methylcellulose (MC)) 116 % of control; (dose: 75.0 mg/kg/injection, schedule: Q#A X014 (ip), vehicle: methylcellulose (MC)) 88 % of control; (dose: 100.0 mg/kg/injection, schedule: Q#A X014 (ip), vehicle: methylcellulose (MC)) 95 % of control; (dose: 100.0 mg/kg/injection, schedule: Q#A X014 (ip), vehicle: other) 96 % of control; (dose: 125.0 mg/kg/injection, schedule: Q#A X014 (ip), vehicle: methylcellulose (MC)) 75 % of control. Also, the T/C is 113 % of control (dose: 125.0 mg/kg/injection, schedule: Q#A X014 (ip), vehicle: other); 65 % of control (dose: 150.0 mg/kg/injection, schedule: Q#A X014 (ip), vehicle: other); 57 % of control (dose: 175.0 mg/kg/injection, schedule: Q#A X014 (ip), vehicle: other).

Regarding `Cn1cc(F)c(=O)[nH]c1=O`, the T/C (dose: 10.0 mg/kg/injection, schedule: Q01DX007 (ip), vehicle: carboxymethylcellulose (CMC)) is 99 % of control and 112 % of control; the T/C (dose: 20.0 mg/kg/injection, schedule: Q01DX007 (ip), vehicle: carboxymethylcellulose (CMC)) is 88 % of control and 94 % of control; the T/C under setting [2] is 95 % of control.

In the case of `Cc1cc(N(CCCl)CCCl)ccc1N=Nc1ccccc1C(=O)O`, the T/C was 33 % of control (dose: 5.3 mg/kg/injection, schedule: Q01DX007 (ip), vehicle: carboxymethylcellulose (CMC)); 50 % of control under setting [1]; 61 % of control (dose: 12.0 mg/kg/injection, schedule: Q01DX007 (ip), vehicle: carboxymethylcellulose (CMC)); 27 % of control (dose: 18.0 mg/kg/injection, schedule: Q01DX007 (ip), vehicle: carboxymethylcellulose (CMC)).

With `NC(CO)C(=O)NC1(C(=O)O)CCCC1` (stereo unspecified) (H-[ξS]-[Ac5c]-OH), the T/C is, setting by setting: (dose: 110.0 mg/kg/injection, schedule: Q01DX007 (ip), vehicle: carboxymethylcellulose (CMC)) 84 % of control; (dose: 167.0 mg/kg/injection, schedule: Q01DX007 (ip), vehicle: carboxymethylcellulose (CMC)) 49 % of control; (dose: 250.0 mg/kg/injection, schedule: Q01DX007 (ip), vehicle: carboxymethylcellulose (CMC)) 21 % of control.

Regarding `C=CCCCCCCCCC(=O)O`, the T/C was 109 % of control (dose: 7.8 mg/kg/injection, schedule: Q01DX007 (ip), vehicle: saline); 118 % of control (dose: 15.6 mg/kg/injection, schedule: Q01DX007 (ip), vehicle: saline); 122 % of control (dose: 31.3 mg/kg/injection, schedule: Q01DX007 (ip), vehicle: saline); 90 % of control (dose: 125.0 mg/kg/injection, schedule: Q01DX007 (ip), vehicle: saline).

In the case of `COC(=O)C1=COC(C)C2CN3CCc4c([nH]c5cc(OC)ccc45)C3CC12` (stereo unspecified), the T/C is, setting by setting: (dose: 50.0 mg/kg/injection, schedule: Q01DX007 (ip), vehicle: other) 91 % of control; (dose: 100.0 mg/kg/injection, schedule: Q01DX007 (ip), vehicle: other) 89 % of control; (dose: 200.0 mg/kg/injection, schedule: Q01DX007 (ip), vehicle: other) 75 % of control.

For the molecule `CCC1=C(c2cc(Cl)c3ccccc3c2OCC(=O)O)OC(CC)(C(=O)c2cc(Cl)c3ccccc3c2OCC(=O)O)CC1` (stereo unspecified), the T/C by setting is: (dose: 2.0 mg/kg/injection, schedule: Q01DX007 (ip), vehicle: other) 110 % of control; (dose: 4.0 mg/kg/injection, schedule: Q01DX007 (ip), vehicle: other) 120 % of control; (dose: 8.0 mg/kg/injection, schedule: Q01DX007 (ip), vehicle: other) 90 % of control; (dose: 16.0 mg/kg/injection, schedule: Q01DX007 (ip), vehicle: other) 112 % of control; (dose: 75.0 mg/kg/injection, schedule: Q01DX007 (ip), vehicle: other) 95 % of control; (dose: 111.0 mg/kg/injection, schedule: Q01DX007 (ip), vehicle: other) 49 % of control.

In the case of `Nc1nc(=S)c2ncn(C3OC(COC(=O)c4ccc([N+](=O)[O-])cc4)C(OC(=O)c4ccc([N+](=O)[O-])cc4)C3OC(=O)c3ccc([N+](=O)[O-])cc3)c2[nH]1` (stereo unspecified), the T/C (dose: 4.0 mg/kg/injection, schedule: Q01DX007 (ip), vehicle: carboxymethylcellulose (CMC)) is 77 % of control; the T/C (dose: 7.0 mg/kg/injection, schedule: Q01DX007 (ip), vehicle: carboxymethylcellulose (CMC)) is 94 % of control; the T/C (dose: 15.0 mg/kg/injection, schedule: Q01DX007 (ip), vehicle: carboxymethylcellulose (CMC)) was 93 % of control and 110 % of control; the T/C (dose: 23.0 mg/kg/injection, schedule: Q01DX007 (ip), vehicle: methylcellulose (MC)) is 63 % of control; the T/C (dose: 35.0 mg/kg/injection, schedule: Q01DX007 (ip), vehicle: carboxymethylcellulose (CMC)) was 37 % of control; the T/C (dose: 36.0 mg/kg/injection, schedule: Q01DX007 (ip), vehicle: carboxymethylcellulose (CMC)) is 29 % of control and 32 % of control. Moreover, the T/C by setting is: (dose: 36.0 mg/kg/injection, schedule: Q01DX007 (ip), vehicle: methylcellulose (MC)) 77 % of control; (dose: 53.0 mg/kg/injection, schedule: Q01DX007 (ip), vehicle: carboxymethylcellulose (CMC)) 15 % of control and 30 % of control; (dose: 53.0 mg/kg/injection, schedule: Q01DX007 (ip), vehicle: methylcellulose (MC)) 56 % of control; under setting [2], 16 % of control; (dose: 80.0 mg/kg/injection, schedule: Q01DX007 (ip), vehicle: methylcellulose (MC)) 62 % of control.

Values taken from PubChem BioAssay AID342 (DTP/NCI, 2004).
